This is an account of results in ChEMBL document CHEMBL1141234, “Synthesis and SAR of highly potent dual 5-HT1A and 5-HT1B antagonists as potential antidepressant drugs” (Bioorg Med Chem Lett, 2005).

Assay [1] concerns the target T1, 5-hydroxytryptamine receptor 1B (Homo sapiens, UniProt P28222). Put plainly: Functional activity in FLIPR assay for 5HT1B receptor.
Assay [2] deals with T2, 5-hydroxytryptamine receptor 1A (Homo sapiens) (UniProt P08908).
T2 sequence (whole entry): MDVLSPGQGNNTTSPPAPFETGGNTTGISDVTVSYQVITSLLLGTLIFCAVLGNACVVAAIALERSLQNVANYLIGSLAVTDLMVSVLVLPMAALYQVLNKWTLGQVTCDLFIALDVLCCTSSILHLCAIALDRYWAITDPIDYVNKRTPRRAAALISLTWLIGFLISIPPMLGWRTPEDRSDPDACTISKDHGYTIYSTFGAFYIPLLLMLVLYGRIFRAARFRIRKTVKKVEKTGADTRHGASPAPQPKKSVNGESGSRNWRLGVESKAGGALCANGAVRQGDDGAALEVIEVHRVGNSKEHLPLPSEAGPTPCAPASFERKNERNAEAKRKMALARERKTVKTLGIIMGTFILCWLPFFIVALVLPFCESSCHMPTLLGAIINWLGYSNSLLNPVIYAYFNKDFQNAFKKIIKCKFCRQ
Nature of the assay: Intrinsic activity for 5HT1A receptor in [35S]GTP-gamma-S assay. The format is functional. (In general: GTPγS is a poorly hydrolysed GTP analogue; its binding reports G protein activation.)

Assay [3] concerns the target T1, 5-hydroxytryptamine receptor 1B. Nature of the assay: Inhibitory activity against human recombinant 5HT1B receptor co-expressed with G-protein chimera Gqo5 in HEK293 cells by FLIPR. In kind it is functional, cell-based.
Assay [4] concerns the target T3, Adrenergic receptor alpha-1 (Homo sapiens, UniProt P35348+P25100+P35368).
T3 sequence (P35348 whole entry): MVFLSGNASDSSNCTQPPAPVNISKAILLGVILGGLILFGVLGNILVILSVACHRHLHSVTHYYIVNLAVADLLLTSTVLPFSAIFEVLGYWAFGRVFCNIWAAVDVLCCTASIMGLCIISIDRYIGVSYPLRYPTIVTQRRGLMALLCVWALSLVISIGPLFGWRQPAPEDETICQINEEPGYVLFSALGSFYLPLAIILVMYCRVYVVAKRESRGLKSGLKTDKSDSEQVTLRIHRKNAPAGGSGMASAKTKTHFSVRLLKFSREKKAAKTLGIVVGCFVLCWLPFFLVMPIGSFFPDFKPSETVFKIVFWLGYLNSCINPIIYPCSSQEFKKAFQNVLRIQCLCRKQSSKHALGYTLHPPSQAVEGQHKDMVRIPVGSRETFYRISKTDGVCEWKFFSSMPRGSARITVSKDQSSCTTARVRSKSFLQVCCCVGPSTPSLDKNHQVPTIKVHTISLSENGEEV
T3 sequence (P25100 whole entry): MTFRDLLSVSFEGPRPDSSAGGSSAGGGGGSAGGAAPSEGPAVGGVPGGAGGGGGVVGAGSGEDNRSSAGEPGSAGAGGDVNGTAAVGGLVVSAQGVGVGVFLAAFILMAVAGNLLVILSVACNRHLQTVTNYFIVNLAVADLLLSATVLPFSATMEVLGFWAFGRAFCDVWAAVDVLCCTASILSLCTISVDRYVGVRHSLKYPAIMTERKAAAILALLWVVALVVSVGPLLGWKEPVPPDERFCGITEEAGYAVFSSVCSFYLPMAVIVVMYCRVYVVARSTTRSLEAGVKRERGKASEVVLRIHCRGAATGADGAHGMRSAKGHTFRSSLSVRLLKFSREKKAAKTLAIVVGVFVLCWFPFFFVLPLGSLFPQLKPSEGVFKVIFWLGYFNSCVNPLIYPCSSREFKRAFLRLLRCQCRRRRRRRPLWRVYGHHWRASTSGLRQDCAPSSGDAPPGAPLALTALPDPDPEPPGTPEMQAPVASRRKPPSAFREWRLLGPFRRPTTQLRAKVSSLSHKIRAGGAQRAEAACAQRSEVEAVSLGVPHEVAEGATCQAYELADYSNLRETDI
T3 sequence (P35368 whole entry): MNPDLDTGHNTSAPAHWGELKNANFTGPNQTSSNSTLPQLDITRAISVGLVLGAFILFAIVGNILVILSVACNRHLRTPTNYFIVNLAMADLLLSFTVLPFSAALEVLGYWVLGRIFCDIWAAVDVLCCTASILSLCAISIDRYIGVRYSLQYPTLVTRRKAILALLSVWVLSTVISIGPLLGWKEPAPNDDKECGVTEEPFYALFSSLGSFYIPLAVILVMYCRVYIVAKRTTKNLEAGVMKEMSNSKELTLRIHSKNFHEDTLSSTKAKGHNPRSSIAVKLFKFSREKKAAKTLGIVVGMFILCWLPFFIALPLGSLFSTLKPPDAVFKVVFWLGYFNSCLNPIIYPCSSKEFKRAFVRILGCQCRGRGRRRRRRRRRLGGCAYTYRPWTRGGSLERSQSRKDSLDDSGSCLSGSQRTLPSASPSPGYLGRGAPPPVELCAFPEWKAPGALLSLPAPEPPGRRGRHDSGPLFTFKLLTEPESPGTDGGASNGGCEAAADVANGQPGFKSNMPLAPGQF
Put plainly: Inhibitory activity against Adrenergic alpha-1 receptor. The format is protein assay.

The target in assay [5] is T2, 5-hydroxytryptamine receptor 1A (Homo sapiens). Nature of the assay: Functional activity in [35S]GTP-gamma-S assay for 5HT1A receptor.
The target of assay [6] is T4, 5-hydroxytryptamine receptor 1A (Homo sapiens, UniProt P08908).
T4 sequence (P08908 whole entry): T2 sequence (whole entry)
Put plainly: Displacement of [35S]GTP-gamma-S from human recombinant 5HT1A receptor. The format is functional.

For assay [7], the target named is T1, 5-hydroxytryptamine receptor 1B. Put plainly: Intrinsic activity for 5HT1B receptor in FLIPR assay. The format is functional.

A value given as a limit tells only on which side of the number the result lay.

T1 sequence (P28222 whole entry): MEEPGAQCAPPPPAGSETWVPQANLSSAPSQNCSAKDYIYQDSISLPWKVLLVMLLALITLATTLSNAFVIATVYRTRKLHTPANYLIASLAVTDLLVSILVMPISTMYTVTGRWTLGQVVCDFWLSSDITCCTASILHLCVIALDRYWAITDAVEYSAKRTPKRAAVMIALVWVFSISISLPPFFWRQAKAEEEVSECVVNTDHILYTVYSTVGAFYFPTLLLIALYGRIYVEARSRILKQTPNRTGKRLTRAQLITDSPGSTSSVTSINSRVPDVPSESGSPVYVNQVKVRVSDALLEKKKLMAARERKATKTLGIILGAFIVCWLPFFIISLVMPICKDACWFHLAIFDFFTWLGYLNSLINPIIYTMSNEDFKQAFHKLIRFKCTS

For orientation: Emax means the maximal effect, on the per cent scale that the assay sets. As usually defined, the Ki is the dissociation constant of the complex between target and ligand, obtained from inhibition or displacement. For the molecule `CN1CCc2c(sc3ncn(CCN4CCN(c5nccc6ccccc56)CC4)c(=O)c23)C1`, the Activity entry in assay [1] (filed as partial agonist) and in assay [5] (filed as partial agonist) was “Partial agonist” throughout. Besides, the values for the Emax in assay [2] and in assay [7] were 10% and 20%, respectively. The Ki in assay [3] came to 0.5 nM; in assay [4], 41.1 nM; in assay [6], 0.7 nM.
`COc1c(Cl)cccc1N1CCN(CCn2cnc3sc4c(c3c2=O)CCN(C)C4)CC1`: the Activity entry in assay [1] (filed as partial agonist) and in assay [5] (filed as partial agonist) was “Partial agonist” each time. The Emax in assay [2] was determined as 10%; in assay [7], 20%. In addition, the Ki in assay [3] was found to be 0.5 nM; in assay [4] it was 7 nM; in assay [6], 2.5 nM.
For the molecule `CN1CCc2c(sc3ncn(CCN4CCN(c5cccc6ccsc56)CC4)c(=O)c23)C1`, the Activity result in assay [1] (filed as antagonist) is “Antagonist”; in assay [5] (filed as partial agonist), “Partial agonist”. Further, the Emax is 10% in assay [2] and below 20% in assay [7]. For the same molecule, the values for the Ki in assay [3], in assay [4] and in assay [6] were 0.4 nM, 0.5 nM and 0.4 nM, respectively.
With `CN1CCc2c(sc3ncn(CCN4CCN(c5ccc6ccccc6n5)CC4)c(=O)c23)C1`, the Activity entry in assay [1] (filed as partial agonist) and in assay [5] (filed as partial agonist) was “Partial agonist” in each case. In addition, the Emax came out at 10% in assay [2] and 20% in assay [7]. The Ki in assay [3] was 36.6 nM; in assay [4], 121.1 nM; in assay [6], 9.1 nM.
On to `COc1ccc(C(F)(F)F)cc1N1CCN(CCn2cnc3sc4c(c3c2=O)CCN(C)C4)CC1`, for which the values for the Ki in assay [3], in assay [4] and in assay [6] were 42.3 nM, 18 nM and 104 nM, respectively.
For the molecule `CN1CCc2c(sc3ncn(CCN4CCN(c5cccc6cnccc56)CC4)c(=O)c23)C1`, the Activity entry in assay [1] (filed as partial agonist) and in assay [5] (filed as partial agonist) was “Partial agonist” in each case. In addition, the Emax in assay [2] came out at 10%; in assay [7], 20%. For the same molecule, the Ki worked out at 0.9 nM in assay [3], 129.1 nM in assay [4] and 0.9 nM in assay [6].
Take `CN1CCc2c(sc3ncn(CCN4CCN(c5ccccc5Cl)CC4)c(=O)c23)C1`: the Activity entry in assay [1] (filed as partial agonist) and in assay [5] (filed as partial agonist) was “Partial agonist” each time. Moreover, the Emax stood at 10% in assay [2] and 20% in assay [7]. Moreover, the Ki in assay [3] was determined as 1.7 nM; in assay [4], 1 nM; in assay [6], 2.8 nM.
Regarding `CN1CCc2c(sc3ncn(CCN4CCN(c5ncnc6ccccc56)CC4)c(=O)c23)C1`, the values for the Activity result in assay [1] (filed as agonist) and in assay [5] (filed as antagonist) were “Agonist” and “Antagonist”, respectively. The Emax in assay [2] was below 10%; in assay [7], above 80%. Besides, the results for the Ki in assay [3], in assay [4] and in assay [6] were 320 nM, 6780 nM and 93.4 nM, respectively.
In the case of `COc1ccc(C)cc1N1CCN(CCn2cnc3sc4c(c3c2=O)CCN(C)C4)CC1`, the values for the Activity entry in assay [1] (filed as antagonist) and in assay [5] (filed as partial agonist) were “Antagonist” and “Partial agonist”, respectively. Besides, the Emax in assay [2] was 10%; in assay [7] it was below 20%. Further, the Ki turned out to be 11.9 nM in assay [3], 12.1 nM in assay [4] and 5.6 nM in assay [6].
Regarding `CN1CCc2c(sc3ncn(CCN4CCN(c5ccccc5Oc5ccccc5)CC4)c(=O)c23)C1`, the Activity result in assay [1] (filed as partial agonist) and in assay [5] (filed as partial agonist) was “Partial agonist” in each case. For the same molecule, the Emax in assay [2] came to 10%; in assay [7], 20%. For the same molecule, the figures for the Ki in assay [3], in assay [4] and in assay [6] were 1.1 nM, 0.5 nM and 0.9 nM, respectively.
Turning to `COc1ccc(-c2ccccc2)cc1N1CCN(CCn2cnc3sc4c(c3c2=O)CCN(C)C4)CC1`, the Ki amounted to 116 nM in assay [3], 0.1 nM in assay [4] and 429 nM in assay [6].
